Patent US20080107722A1, “Method For Loading Multiple Agents Into Delivery Vehicles” (priority 2004, published 2008)
Blank lines part the entries; values can stand above or below the compound they belong to.

Assays:
[1] = Simultaneous loading of FUDR and daunorubicin into preformed DSPC/DSPG/Cholesterol liposomes; assay type: physicochemical; details: 50° C.; for loading in liposomes: 100 mM Cu(II)gluconate pH 7.0, FIG. 3; for retention during the course of the experiment: FIG. 3
Description: (§1) At various time points after initiation of drug loading, aliquots were removed and passed through a Sephadex® G-50 spin column to separate free from encapsulated drug. To a specified volume of eluant, Triton X-100 or N-ocyl beta-D-glucopyranoside (OGP) was added to solubilize the liposomes. Following addition of detergent, the mixture was heated to the cloud point of the detergent and allowed to cool to room temperature before measurement of the absorbance or fluorescence. Drug concentrations were calculated by comparison to a standard curve. Lipid levels were measured by liquid scintillation counting.
FUDR and daunorubicin were loaded at 50° C. into pre-formed DSPC/DSPG/Cholesterol liposomes (70:20:10) containing 100 mM Cu(II)gluconate adjusted to pH 7.0 with triethanolamine (TEA). The liposomes were buffer exchanged into 300 mM sucrose, 40 mM phosphate, 1 mM EDTA, pH 7.0 by crossflow dialysis to remove any copper(II)gluconate from the extraliposomal solution. Prior to addition of drugs, the liposomes were diluted in SPE and preheated at 50° C. for one minute. FUDR (with trace amounts of ^3H-FUDR) and daunorubicin were combined then added simultaneously to the pre-heated liposomes. FUDR was added at a drug concentration of 60 μmol/mL and daunorubicin was added at a drug-to-lipid mole ratio of 0.1:1. […] Aliquots were removed and analyzed for drug and lipid content at designated time intervals. The extent of daunorubicin loading was determined spectrophotometrically and FUDR and lipid levels were determined by liquid scintillation counting.

[2] = Simultaneous loading of irinotecan and floxuridine into low cholesterol DSPC/DSPG/Cholesterol liposomes (data not shown); assay type: physicochemical; details: low cholesterol-containing DSPC/DSPG/Cholesterol liposomes
[3] = Simultaneous loading of FUDR and cpt-11 into DSPC/Cholesterol (high-cholesterol) liposomes; assay type: physicochemical; details: 50° C.; for loading in liposomes: DSPC/Cholesterol, 100 mM Cu(II)gluconate pH 7.0; for drug ratio of FUDR-to-cpt-11 during the course of the experiment: FIG. 6
Description: as §1
Lipid films of DSPC/Cholesterol at a mole ratio of 55:45 were prepared as previously described and then hydrated in 100 mM Cu(II)gluconate, adjusted to pH 7.0 with triethanolamine (TEA). The liposomes were buffer exchanged into SPE, pH 7.0. Prior to addition of drugs, the liposomes were preheated to 50° C. for one minute. FUDR (with tracer amounts of ^3H-FUDR) and cpt-11 were combined then added simultaneously to the pre-heated liposomes. FUDR was added to a final drug concentration of 110 μmol/mL and cpt-11 was added to a final drug concentration of 7.5 μmol/mL. The liposomes and drugs were incubated for one hour to allow for the passive uptake of FUDR concurrent with the active uptake of Irinotecan. Aliquots were removed and analyzed for drug and lipid content at designated time intervals. The extent of cpt-11 loading was determined spectrophotometrically and FUDR and lipid levels were determined by liquid scintillation counting.

[4] = Simultaneous loading of cytarabine and daunorubicin into DSPC/DSPG/Cholesterol liposomes, effect of internal Cu(II)gluconate concentration; assay type: physicochemical; details: 50° C.; for daunorubicin loading (percent encapsulation): FIG. 2B
Description: (§2) Lipids were dissolved in chloroform:methanol:water (95:4:1 vol/vol/vol) and subsequently dried under a stream of nitrogen gas and placed in a vacuum pump to remove solvent. Unless otherwise specified, trace levels of radioactive lipid ^14C-DPPC was added to quantify lipid during the formulation process. The resulting lipid film was placed under high vacuum for a minimum of 2 hours. The lipid film was hydrated in the solution indicated to form multilamellar vesicles (MLVs). The resulting preparation was extruded 10 times through stacked polycarbonate filters with an extrusion apparatus (Lipex Biomembranes, Vancouver, BC) to achieve a mean liposome size between 80 and 150 nm. All constituent lipids of liposomes are reported in mole %.
as §1
Lipid films of DSPC/DSPG/Cholesterol at a mole ratio of 70:20:10 were prepared as described above in the method section. The lipid films were hydrated in the designated Cu(II)gluconate concentration and adjusted to pH 7.0 with triethanolamine (TEA). The liposomes were buffer exchanged into 300 mM sucrose, 20 mM sodium phosphate, pH 7.0 by crossflow dialysis to remove any copper(II)gluconate from the extraliposomal solution. Prior to addition of drugs, the liposomes were diluted in SPE and preheated at 50° C. for one minute. […] Aliquots were removed and analyzed for drug and lipid content at designated time intervals. The extent of daunorubicin loading was determined spectrophotometrically and cytarabine and lipid levels were determined by liquid scintillation counting.

[5] = Simultaneous loading of cytarabine and daunorubicin into preformed DSPC/DSPG/Cholesterol (70:20:10) liposomes, effect of temperature; assay type: physicochemical; details: for loading and retention in liposomes: 40° C., 100 mM Cu(II)gluconate pH 7.4 inside, FIG. 1A
Description: as §2, §1
Lipid films of DSPC/DSPG/Cholesterol at a mole ratio of 70:20:10 were prepared as described above in the method section. The lipid films were hydrated in 100 mM Cu(II)gluconate adjusted to pH 7.4 with triethanolamine (TEA) and extruded at 70° C. The liposomes were buffer exchanged into 300 mM sucrose, 20 mM phosphate, 1 mM EDTA (SPE), pH 7.4 by crossflow dialysis to remove any copper(II)gluconate from the extraliposomal solution. Prior to addition of drugs, the liposomes were preheated to the appropriate loading temperature for one minute. […] Aliquots were removed and analyzed for drug and lipid content at designated time intervals.

[6] = Simultaneous loading of daunorubicin and cytarabine into DMPC/Cholesterol liposomes by citrate pH-gradient; assay type: physicochemical; details: 45° C. versus room temperature or 40° C., 300 mM citrate pH 4 inside, FIG. 5
Description: as §1
Aliquots were removed and analyzed for drug and lipid content at designated time intervals.

[7] = Simultaneous loading of gemcitabine and doxorubicin into preformed liposomes; assay type: physicochemical; details: for loading and retention in liposomes: 60° C., DSPC/DSPG/Cholesterol 70:20:10, FIG. 4C; for simultaneous loading in high cholesterol-containing liposomes: DMPC/Cholesterol liposomes
Description: as §1
Gemcitabine and doxorubicin were loaded into DSPC/DSPG/Cholesterol liposomes at 37° C., 50° C. and 60° C. […] The lipid films were hydrated in 100 mM Cu(II)gluconate, adjusted to pH 7.4 with triethanolamine (TEA) and extruded at 70° C. The liposomes were buffer exchanged into HBS, pH 7.4 by crossflow dialysis. Prior to addition of drugs, the liposomes were preheated to the appropriate loading temperature for one minute. Gemcitabine (with tracer amounts of ^3H-gemcitabine) and doxorubicin were combined then added simultaneously to the pre-heated liposomes. Gemcitabine was added to a drug concentration of 30 μmol/mL and doxorubicin was added to a drug concentration of 33 μmol/mL. […] Aliquots were removed and analyzed for drug and lipid content at designated time intervals. The extent of doxorubicin loading was determined spectrophotometrically and gemcitabine and lipid levels were determined by liquid scintillation counting.

[8] = passive then Na+/K+ gradient with valinomycin; cited from earlier work
[9] = co-loaded with mitoxantrone in a single liposome; cited from earlier work
[10] = 37° C., DSPC/DSPG/Cholesterol 70:20:10, FIG. 4A
[11] = 50° C., DSPC/DSPG/Cholesterol 70:20:10, FIG. 4B

Compound: COc1cccc2c1C(=O)c1c(O)c3c(c(O)c1C2=O)C[C@@](O)(C(C)=O)C[C@@H]3O[C@H]1C[C@H](N)[C@H](O)[C@H](C)O1 [daunorubicin]
daunorubicin loading (percent encapsulation) ([4]; 25 mM copper gluconate): compromised | daunorubicin loading (percent encapsulation) ([4]; 100 mM, 75 mM and 50 mM copper gluconate): sufficient | loading in liposomes [1]: loaded to sufficient levels | retention during the course of the experiment [1]: well maintained | simultaneous loading efficiency [6]: more efficient | loading and retention in liposomes [5]: efficiently loaded and retained | loading in liposomes ([5]; 50° C., FIG. 1B): load to adequate levels | retention in liposomes during the experiment ([5]; 50° C., FIG. 1B): effectively retained | loading in liposomes ([5]; 60° C., FIG. 1C): loads at this temperature | retention in liposomes ([5]; 60° C., FIG. 1C): not well-retained

Compound: CN(Cc1cnc2nc(N)nc(N)c2n1)c1ccc(C(=O)N[C@@H](CCC(=O)O)C(=O)O)cc1 [methotrexate]
available drug encapsulated [8]: 33%

Compound: CC[C@]1(O)C[C@H]2CN(CCc3c([nH]c4ccccc34)[C@@](C(=O)OC)(c3cc4c(cc3OC)N(C=O)[C@H]3[C@@](O)(C(=O)OC)[C@H](OC(C)=O)[C@]5(CC)C=CCN6CC[C@]43[C@@H]65)C2)C1 [vincristine]
release of entrapped drug in vivo [9]: rapid release

Now from value to compound, other results behind:

loading in liposomes [1]: loaded to sufficient levels | retention during the course of the experiment [1]: well maintained | loading in liposomes [2]: sufficient | loading in liposomes [3]: effectively loaded | drug ratio of FUDR-to-cpt-11 during the course of the experiment [3]: maintained at a sufficient level
Compound: O=c1[nH]c(=O)n([C@H]2C[C@H](O)[C@@H](CO)O2)cc1F [FUDR, Floxuridine]

loading in liposomes [2]: sufficient | loading in liposomes [3]: effectively loaded | drug ratio of FUDR-to-cpt-11 during the course of the experiment [3]: maintained at a sufficient level
Compound: CCc1c2c(nc3ccc(OC(=O)N4CCC(N5CCCCC5)CC4)cc13)-c1cc3c(c(=O)n1C2)COC(=O)[C@]3(O)CC [cpt-11, irinotecan]

cytarabine loading during simultaneous uptake of daunorubicin ([4]; 25, 50, 75 and 100 mM Cu(II)gluconate, FIG. 2A): sufficient | extent of cytarabine loading ([4]; 25 and 50 mM versus 75 mM and 100 mM Cu(II)gluconate, FIG. 2A): improved | loading and retention in liposomes [5]: less than desirable | loading in liposomes ([5]; 50° C., FIG. 1B): load to adequate levels | retention in liposomes during the experiment ([5]; 50° C., FIG. 1B): effectively retained | loading in liposomes ([5]; 60° C., FIG. 1C): compromised compared to loading at 50 °C
Compound: Nc1ccn([C@@H]2O[C@H](CO)[C@@H](O)[C@@H]2O)c(=O)n1 [cytarabine]

loading in liposomes [7, 10]: did not load to sufficient levels | loading in liposomes [7, 11]: superior to the gemcitabine loading | loading and retention in liposomes [7]: Optimal loading and retention | simultaneous loading in high cholesterol-containing liposomes [7]: hindered by aggregation
Compound: COc1cccc2c1C(=O)c1c(O)c3c(c(O)c1C2=O)C[C@@](O)(C(=O)CO)C[C@@H]3O[C@H]1C[C@H](N)[C@H](O)[C@H](C)O1 [doxorubicin]

loading in liposomes [7, 10]: could load effectively | loading and retention in liposomes [7]: Optimal loading and retention | simultaneous loading in high cholesterol-containing liposomes [7]: hindered by aggregation
Compound: Nc1ccn([C@@H]2O[C@H](CO)[C@@H](O)C2(F)F)c(=O)n1 [gemcitabine, Gemcitabine]
loading in liposomes [7, 11]: load to minimal levels and then quickly leaks
